Test results reported in US6569878B1, “Substituted 4-amino-thiazol-2-yl compounds as cyclin-dependent kinase inhibitors” (Agouron Pharmaceuticals Inc., priority 1997, dated 2003).

Assays:
[1] = target: T1, complex of human CDK4 and genetically truncated (1-264) cyclin D3 (Homo sapiens, UniProt P11802); assay: Inhibition of CDK4/cyclin D retinoblastoma kinase activity (D-type cyclin is truncated D3); assay type: biochemical; conditions: superscript c: D-type cyclin is truncated D3; read-out: Ki CDK 4/D
T1 construct: made in house; host or cells: insect cells, co-infected with baculovirus
T1 sequence (P11802 whole entry, the tested form may be a part): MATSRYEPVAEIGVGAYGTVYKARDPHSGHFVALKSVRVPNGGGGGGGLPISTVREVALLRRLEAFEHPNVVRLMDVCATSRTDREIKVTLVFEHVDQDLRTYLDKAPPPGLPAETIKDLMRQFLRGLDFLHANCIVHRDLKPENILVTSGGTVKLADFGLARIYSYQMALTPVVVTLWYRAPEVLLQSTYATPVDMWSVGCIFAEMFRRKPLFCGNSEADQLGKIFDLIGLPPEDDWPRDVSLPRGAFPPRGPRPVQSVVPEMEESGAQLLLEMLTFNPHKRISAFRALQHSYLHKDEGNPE
T1 sequence (P30281 1-264 partner limits assumed): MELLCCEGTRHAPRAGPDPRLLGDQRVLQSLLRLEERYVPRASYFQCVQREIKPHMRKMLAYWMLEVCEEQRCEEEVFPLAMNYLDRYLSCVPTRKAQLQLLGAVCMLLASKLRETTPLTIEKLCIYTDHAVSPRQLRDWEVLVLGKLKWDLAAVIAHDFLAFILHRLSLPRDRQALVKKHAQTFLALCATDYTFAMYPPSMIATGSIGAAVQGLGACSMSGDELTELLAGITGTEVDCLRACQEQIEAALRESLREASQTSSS
Protocol: Cyclin-dependent kinase activity was measured by quantifying the enzyme-catalyzed, time-dependent incorporation of radioactive phosphate from [^32P]ATP or [^33P]ATP into a protein substrate. Unless noted otherwise, assays were performed in 96-well plates in a total volume of 50 μL, in the presence of 10 mM HEPES (N-[2-hydroxyethyl]piperazine-N′-[2-ethanesulfonic acid]) (pH 7.4), 10 mM MgCl2, 25 μM adenosine triphosphate (ATP), 1 mg/mL ovalbumin, 5 μg/mL leupeptin, 1 mM dithiothreitol, 10 mM β-glycerophosphate, 0.1 mM sodium vanadate, 1 mM sodium fluoride, 2.5 mM ethylene glycol-bis(β-aminoethyl ether)-N,N,N′N′-tetraacetic acid (EGTA), 2% (v/v) dimethylsulfoxide, and 0.03-0.4 μCi [^32/33P]ATP per reaction. Reactions were initiated with enzyme, incubated at 30° C., and terminated after 20 minutes by the addition of ethylenediaminetetraacetic acid (EDTA) to 250 mM. The phosphorylated substrate was then captured on a nitrocellulose or phosphocellulose membrane using a 96-well filtration manifold, and unincorporated radioactivity was removed by repeated washing with 0.85% phosphoric acid. Radioactivity was quantified by exposing the dried membranes to a phosphorimager.
Apparent Ki values were measured by assaying enzyme activity in the presence of different inhibitor compound concentrations and subtracting the background radioactivity measured in the absence of enzyme. The kinetic parameters (kcat, Km for ATP) were measured for each enzyme under the usual assay conditions by determining the dependence of initial rates on ATP concentration. Inhibition data were fit to an equation for competitive inhibition using Kaleidagraph (Synergy Software), or were fit to an equation for competitive tight-binding inhibition using the software KineTic (BioKin, Ltd.).
A complex of human CDK4 and cyclin D3, or a complex of cyclin D1 and a fusion protein of human CDK4 and gluathione-S-transferase (GST-CDK4), or a complex of human CDK4 and genetically truncated (1-264) cyclin D3, was purified using traditional biochemical chromatographic techniques from insect cells that had been co-infected with the corresponding baculovirus expression vectors (see e.g., Meijer and Kim, “Chemical Inhibitors of Cyclin-Dependent Kinases,” Methods in Enzymol,. vol. 283 (1997), pp. 113-128.). The enzyme complex (5 or 50 nM) was assayed with 0.3-0.5 μg of purified recombinant retinoblastoma protein fragment (Rb) as a substrate. The engineered Rb fragment (residues 386-928 of the native retinoblastoma protein; 62.3 kDa) contains the majority of the phosphorylation sites found in the native 106-kDa protein, as well as a tag of six histidine residues for ease of purification. Phosphorylated Rb substrate was captured by microfiltration on a nitrocellulose membrane and quantified using a phosphorimager as described above. For measurement of tight-binding inhibitors, the enzyme complex concentration was lowered to 5 nM, and the assay duration was extended to 60 minutes, during which the time-dependence of product formation was linear.

HCT116 = assay: Inhibition of cell growth, MTT assay, HCT116; assay type: cell-based, human; conditions: for IC50 / IC90: Homo sapiens, HCT-116
Procedure, shortened: (§1)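 Cells rested 4 h after plating, then exposed to graded compound concentrations in 0.5% (v/v) DMSO for four to six days (cell-type dependent) at 37° C, 5% CO2. Viability was read by MTT (0.2 mg/mL final, 4 h at 37° C), with DMSO-solubilized formazan measured at 540 nm.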

[2] = target: T2, human CDK1 (cdc2) and cyclin B (Homo sapiens, UniProt P06493); assay: Inhibition of CDK1(cdc2)/cyclin B histone H1 kinase activity; assay type: biochemical; conditions: read-out: Ki CDK 1/B
T2 construct: purchased New England Biolabs (Beverly Mass.)
T2 sequence (P06493 whole entry): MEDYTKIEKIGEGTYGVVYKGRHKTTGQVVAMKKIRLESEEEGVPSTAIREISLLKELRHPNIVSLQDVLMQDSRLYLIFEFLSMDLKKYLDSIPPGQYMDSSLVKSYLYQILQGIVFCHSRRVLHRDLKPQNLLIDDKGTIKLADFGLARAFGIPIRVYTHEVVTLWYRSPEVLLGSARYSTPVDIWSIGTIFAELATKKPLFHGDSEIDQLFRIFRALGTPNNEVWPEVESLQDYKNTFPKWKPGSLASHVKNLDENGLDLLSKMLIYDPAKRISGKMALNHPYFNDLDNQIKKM
T2 sequence (P14635 whole entry partner): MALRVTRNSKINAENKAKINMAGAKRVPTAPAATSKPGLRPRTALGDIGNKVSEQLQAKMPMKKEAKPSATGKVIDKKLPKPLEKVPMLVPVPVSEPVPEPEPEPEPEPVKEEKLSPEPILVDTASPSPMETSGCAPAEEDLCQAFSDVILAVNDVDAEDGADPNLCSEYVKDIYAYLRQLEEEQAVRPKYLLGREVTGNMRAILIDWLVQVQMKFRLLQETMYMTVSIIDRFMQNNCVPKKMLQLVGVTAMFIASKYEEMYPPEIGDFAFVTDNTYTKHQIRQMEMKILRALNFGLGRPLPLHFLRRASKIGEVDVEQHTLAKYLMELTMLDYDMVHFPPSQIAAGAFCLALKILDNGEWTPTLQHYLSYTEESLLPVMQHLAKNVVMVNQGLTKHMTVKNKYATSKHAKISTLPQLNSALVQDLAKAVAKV
Procedure, shortened: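 CDK1/cyclin B (commercial, or CDK1/GST-cyclin B1 from co-infected insect cells) phosphorylated histone H1 with 25 μM [32/33P]ATP at pH 7.4, 30° C for 20 min, 2% DMSO. Product captured on phosphocellulose and read by phosphorimager; apparent Ki from competitive or tight-binding fits, with Km for ATP determined.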

U2-OS = assay: Inhibition of cell growth, MTT assay, U2-OS; assay type: cell-based; conditions: for IC50 / IC90: Homo sapiens, U2OS
Procedure, shortened: as §1

Saos-2 = assay: Inhibition of cell growth, MTT assay, Saos-2; assay type: cell-based; conditions: Homo sapiens; Saos-2, MTT assay
Procedure, shortened: as §1

CDK2/cyclin A = target: T3, CDK2/cyclin A (Homo sapiens, UniProt P24941); assay: Inhibition of CDK2/cyclin A retinoblastoma kinase activity; assay type: biochemical; conditions: read-out: Ki CDK 2/A
T3 construct: made in house; host or cells: CDK2: insect cells (baculovirus); cyclin A: E. coli, then limited proteolysis
Procedure, shortened: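 Baculovirus-expressed CDK2 with excess proteolyzed cyclin A (or purified complex), 150 nM or 5 nM, phosphorylating an Rb fragment with 25 μM [32/33P]ATP, pH 7.4, 30° C, 20 min. Filter-captured radioactivity by phosphorimager; apparent Ki from fits to competitive or tight-binding competitive inhibition using measured ATP Km.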

[3] = target: T4, complex of human CDK4 and cyclin D3 (Homo sapiens, UniProt P11802); assay: Inhibition of CDK4/cyclin D retinoblastoma kinase activity (D-type cyclin is D3); assay type: biochemical; conditions: superscript a: D-type cyclin is D3; apparent Ki; read-out: Ki CDK 4/D
T4 construct: made in house; host or cells: insect cells, co-infected with baculovirus
T4 sequence (P11802 whole entry): as the sequence (P11802 whole entry, the tested form may be a part) above
T4 sequence (P30281 whole entry partner): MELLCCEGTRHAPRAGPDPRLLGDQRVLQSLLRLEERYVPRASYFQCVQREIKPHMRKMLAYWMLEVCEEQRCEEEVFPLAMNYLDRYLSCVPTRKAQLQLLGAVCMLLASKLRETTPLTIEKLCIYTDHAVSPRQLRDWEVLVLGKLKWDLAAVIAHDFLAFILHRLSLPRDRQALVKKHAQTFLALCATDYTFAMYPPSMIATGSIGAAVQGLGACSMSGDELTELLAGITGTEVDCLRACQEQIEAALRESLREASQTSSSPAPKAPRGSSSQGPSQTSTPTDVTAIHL
Procedure, shortened: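 Radiometric assay: [32P]- or [33P]ATP phosphate incorporation into Rb substrate at 30°C for 20 min, stopped with EDTA, filter-captured and phosphorimaged.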

MCF-7 = assay: Inhibition of cell growth, MTT assay, MCF-7; assay type: cell-based; conditions: MCF-7, MTT assay; for IC50 / IC90: Homo sapiens, MCF7
Protocol: (§2) The water-insoluble purple formazan product was then detected spectrophotometrically. […] Plates were incubated for four hours before addition of inhibitor compounds. Different concentrations of inhibitor compounds were added in 0.5% (v/v) dimethylsulfoxide (15 μL/well), and cells were incubated at 37° C. (5% CO2) for four to six days (depending on cell type). At the end of the incubation, MTT was added to a final concentration of 0.2 mg/mL, and cells were incubated for 4 hours more at 37° C. After centrifugation of the plates and removal of medium, the absorbance of the formazan (solubilized in dimethylsulfoxide) was measured at 540 nm.

MDA-MB-468 = assay: Inhibition of cell growth, MTT assay, MDA-MB-468; assay type: cell-based; conditions: Homo sapiens; MDA-MB-468, MTT assay
Protocol: as §2

SW-480 = assay: Inhibition of cell growth, MTT assay, SW-480; assay type: cell-based; conditions: Homo sapiens, SW480; SW-480, MTT assay
Protocol: Inhibition of cell growth was measured using the tetrazolium salt assay, which is based on the ability of viable cells to reduce 3-(4,5-dimethylthiazol-2-yl)-2,5-[2H]-diphenyltetrazolium bromide (MTT) to formazan (Mossman, Journal of Immunological Methods, vol. 65 (1983), pp. 55-58). The water-insoluble purple formazan product was then detected spectrophotometrically. Various cell lines (HCT-116, Saos-2, U2-OS, SW480, COLO-205, RXF-393, M14, MDA-MB-468, and MCF7) were grown in 96-well plates. Cells were plated in the appropriate medium at a volume of 135 μl/well in either McCoy's 5A Medium (for Saos-2, U2-OS, SW480, and HCT-116 cells), RPMI (for COLO-205, RXF-393, M14 cells), or Minimum Essential Medium Eagle (for MDA-MB-468 and MCF7 cells). Plates were incubated for four hours before addition of inhibitor compounds. Different concentrations of inhibitor compounds were added in 0.5% (v/v) dimethylsulfoxide (15 μL/well), and cells were incubated at 37° C. (5% CO2) for four to six days (depending on cell type). At the end of the incubation, MTT was added to a final concentration of 0.2 mg/mL, and cells were incubated for 4 hours more at 37° C. After centrifugation of the plates and removal of medium, the absorbance of the formazan (solubilized in dimethylsulfoxide) was measured at 540 nm. […] All results were compared to control cells treated only with 0.5% (v/v) dimethylsulfoxide.

SMILES | Ki [1] [nM] | IC50 (HCT116) [nM] | Ki [2] [nM] | IC90 (HCT116) [nM] | IC50 (U2-OS) [nM] | IC90 (U2-OS) [nM] | Ki (CDK2/cyclin A) [nM] | Ki [3] [nM] | IC50 (MCF-7) [nM] | IC90 (MCF-7) [nM] | IC50 (MDA-MB-468) [nM] | IC90 (MDA-MB-468) [nM] | IC50 (SW-480) [nM] | IC90 (SW-480) [nM] | IC50 (Saos-2) [nM] | IC90 (Saos-2) [nM] | % inhibition of growth in parentheses after >25 (HCT116; concentration not given) [%] | % inhibition of growth in parentheses after >25 (U2-OS; concentration not given) [%] | % inhibition of growth in parentheses after >25 (MCF-7; concentration not given)
NC(=O)C1CCN(c2ccc(Nc3nc(N)c(C(=O)c4c(F)cccc4F)s3)cc2)CC1 [L, {4-Amino-2-[4-(4-carboxamido-piperidin-1-yl)-phenylamino]-thiazol-5-yl}-(2,6-difluoro-phenyl)-methanone] | 22 | > 12500 | 193 |  |  |  |  |  |  |  |  |  |  |  |  |  |  |  | 
CN1CCCN(c2ccc(Nc3nc(N)c(C(=O)c4c(F)cccc4F)s3)cc2)CC1 [C(128), {4-Amino-2-[4-(1-methyl-[1,4]-diazepan-4-yl)-phenylamino]-thiazol-5-yl}-(2,6-difluoro-phenyl)-methanone] | 30 |  |  |  |  |  | 440 |  |  |  |  |  |  |  |  |  |  |  | 
Nc1nc(Nc2ccc(N3CCN(CC4CC4)CC3)cc2)sc1C(=O)c1c(F)cccc1F [C(121), {4-Amino-2-[4-(4-cyclopropylmethyl-piperazin-1-yl)-phenylamino]-thiazol-5-yl}-(2,6-difluoro-phenyl)-methanone] | 10.6 | 2500 |  | 5300 | 6000 | 11000 | 953 |  |  |  |  |  |  |  | 5100 | 12000 |  |  | 
Cc1c(C(=O)c2sc(Nc3ccc4nc[nH]c4c3)nc2N)sc2ccccc12 [C(8), [4-Amino-2-(1H-benzoimidazol-6-ylamino)-thiazol-5-yl]-(3-methyl-benzo[b]thiophen-2-yl)-methanone] |  | 18000 | 97 | > 25000 | 10000 | > 25000 | 389 | 27 | 15000 | > 25000 | 6800 | 15000 | 8300 | 20000 | 6200 | 18000 | 88 | 84 | (82%)
CN(C)CCCN(C)c1ccc(Nc2nc(N)c(C(=O)c3c(F)cccc3F)s2)cc1 [C(126), (4-Amino-2-{4-[(3-dimethylamino-propyl)-methyl-amino]-phenylamino}-thiazol-5-yl)-(2,6-difluoro-phenyl)-methanone] | 24 | 600 |  | 1400 |  |  | 390 |  |  |  |  |  |  |  |  |  |  |  | 

The remaining molecules from weak to strong by Ki (CDK2/cyclin A), led by results:

Ki [1] [nM] | IC50 (HCT116) [nM] | Ki [2] [nM] | IC90 (HCT116) [nM] | IC50 (U2-OS) [nM] | IC90 (U2-OS) [nM] | Ki (CDK2/cyclin A) [nM] | Ki [3] [nM] | IC50 (MCF-7) [nM] | IC90 (MCF-7) [nM] | IC50 (MDA-MB-468) [nM] | IC90 (MDA-MB-468) [nM] | IC50 (SW-480) [nM] | IC90 (SW-480) [nM] | SMILES | IC50 (Saos-2) [nM] | IC90 (Saos-2) [nM] | % inhibition of growth in parentheses after >25 (HCT116; concentration not given) [%] | % inhibition of growth in parentheses after >25 (U2-OS; concentration not given) [%] | % inhibition of growth in parentheses after >25 (MCF-7; concentration not given)
43 | 3500 |  | 6200 | 3500 | 6000 | 364 |  |  |  |  |  |  |  | Nc1nc(Nc2ccc(N3CCN(c4ccccn4)CC3)cc2)sc1C(=O)c1c(F)cccc1F [K, {4-Amino-2-[4-(4-pyridin-2-yl-piperazin-1-yl)-phenylamino]-thiazol-5-yl}-(2,6-difluoro-phenyl)-methanone] | 6000 | 13000 |  |  | 
 | 950 | 57 | 1800 | 900 | 1600 | 318 | 36 | 650 | 5500 | 720 | 1700 | 700 | 7500 | COc1ccc(Nc2nc(N)c(C(=O)c3ccccc3[N+](=O)[O-])s2)cc1 [A(10), [4-Amino-2-(4-methoxy-phenylamino)-thiazol-5-yl]-(2-nitro-phenyl)-methanone] | 1300 | 4600 |  |  | 
46 | > 25000 |  |  |  |  | 290 |  |  |  |  |  |  |  | Nc1nc(Nc2ccc(N3CCC(C(=O)O)CC3)cc2)sc1C(=O)c1c(F)cccc1F [M, 1-{4-[4-Amino-5-(2,6-difluoro-benzoyl)-thiazol-2-ylamino]-phenyl}-piperidine-4-carboxylic Acid] |  |  |  |  | 
64 |  |  |  |  |  | 270 |  |  |  |  |  |  |  | CN(CCC#N)c1ccc(Nc2nc(N)c(C(=O)c3c(F)cccc3F)s2)cc1 [C(129), 3-({4-[4-Amino-5-(2,6-difluorobenzoyl)-thiazol-2-yl-amino]-phenyl}-methylamino)-propionitrile] |  |  |  |  | 
 | 640 | 104 | 1700 | 700 | 1600 | 260 | 14 | 400 | 1700 | 440 | 750 |  |  | CN(C)CCN(C)c1ccc(Nc2nc(N)c(C(=O)c3c(F)cccc3F)s2)cc1 [C(110), (4-Amino-2-{4-[(2-dimethylamino-ethyl)-methyl-amino]-phenylamino}-thiazol-5-yl)-(2,6-difluoro-phenyl)-methanone] | 890 | 1800 |  |  | 
26 |  |  |  |  |  | 215 |  |  |  |  |  |  |  | Nc1nc(Nc2ccc(N3CCN(c4ccncc4)CC3)cc2)sc1C(=O)c1c(F)cccc1F [C(127)] |  |  |  |  | 
35 | 1700 |  | 4800 | 1500 | 4700 | 165 |  |  |  |  |  |  |  | Nc1nc(Nc2ccc(-c3ccncc3)cc2)sc1C(=O)c1c(F)cccc1F [C(122), [4-Amino-2-(4-pyridin-4-yl-phenylamino)-thiazol-5-yl]-(2,6-difluoro-phenyl)-methanone] | 3700 | 10000 |  |  | 
